For experiment [1], the target named is T1, Replicative DNA helicase DnaB (Mycobacterium tuberculosis, UniProt P9WMR3).
T1 sequence (P9WMR3 whole entry): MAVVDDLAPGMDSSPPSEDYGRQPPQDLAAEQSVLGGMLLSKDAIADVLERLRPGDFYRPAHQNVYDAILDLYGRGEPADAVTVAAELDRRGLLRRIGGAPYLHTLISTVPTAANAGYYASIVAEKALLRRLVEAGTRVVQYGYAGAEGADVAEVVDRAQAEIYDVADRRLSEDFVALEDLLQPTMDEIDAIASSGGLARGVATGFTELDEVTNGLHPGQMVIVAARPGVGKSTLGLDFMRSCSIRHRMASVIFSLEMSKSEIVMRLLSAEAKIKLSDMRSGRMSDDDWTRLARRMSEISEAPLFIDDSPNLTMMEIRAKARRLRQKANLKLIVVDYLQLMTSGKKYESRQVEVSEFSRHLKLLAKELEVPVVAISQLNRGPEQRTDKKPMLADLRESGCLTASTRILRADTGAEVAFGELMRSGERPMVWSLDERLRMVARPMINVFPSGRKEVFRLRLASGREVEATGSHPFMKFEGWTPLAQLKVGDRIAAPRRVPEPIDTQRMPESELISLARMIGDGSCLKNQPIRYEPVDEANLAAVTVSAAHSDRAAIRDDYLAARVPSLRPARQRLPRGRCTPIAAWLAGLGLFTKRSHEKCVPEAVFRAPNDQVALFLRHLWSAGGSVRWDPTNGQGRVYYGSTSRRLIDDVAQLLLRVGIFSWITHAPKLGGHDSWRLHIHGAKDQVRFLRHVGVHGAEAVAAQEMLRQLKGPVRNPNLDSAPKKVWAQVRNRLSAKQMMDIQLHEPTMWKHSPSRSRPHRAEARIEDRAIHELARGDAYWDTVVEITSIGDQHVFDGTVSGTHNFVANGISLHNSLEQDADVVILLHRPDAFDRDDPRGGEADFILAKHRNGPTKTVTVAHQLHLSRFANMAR
Kind of experiment: DnaB intein splicing inhibitors, dose response, biochemical, cell-free fluorescence (AID 449749). It counts as functional.

The target in a further experiment is T2, Protein RecA (Mycobacterium tuberculosis, UniProt P9WHJ3).
T2 sequence (P9WHJ3 whole entry): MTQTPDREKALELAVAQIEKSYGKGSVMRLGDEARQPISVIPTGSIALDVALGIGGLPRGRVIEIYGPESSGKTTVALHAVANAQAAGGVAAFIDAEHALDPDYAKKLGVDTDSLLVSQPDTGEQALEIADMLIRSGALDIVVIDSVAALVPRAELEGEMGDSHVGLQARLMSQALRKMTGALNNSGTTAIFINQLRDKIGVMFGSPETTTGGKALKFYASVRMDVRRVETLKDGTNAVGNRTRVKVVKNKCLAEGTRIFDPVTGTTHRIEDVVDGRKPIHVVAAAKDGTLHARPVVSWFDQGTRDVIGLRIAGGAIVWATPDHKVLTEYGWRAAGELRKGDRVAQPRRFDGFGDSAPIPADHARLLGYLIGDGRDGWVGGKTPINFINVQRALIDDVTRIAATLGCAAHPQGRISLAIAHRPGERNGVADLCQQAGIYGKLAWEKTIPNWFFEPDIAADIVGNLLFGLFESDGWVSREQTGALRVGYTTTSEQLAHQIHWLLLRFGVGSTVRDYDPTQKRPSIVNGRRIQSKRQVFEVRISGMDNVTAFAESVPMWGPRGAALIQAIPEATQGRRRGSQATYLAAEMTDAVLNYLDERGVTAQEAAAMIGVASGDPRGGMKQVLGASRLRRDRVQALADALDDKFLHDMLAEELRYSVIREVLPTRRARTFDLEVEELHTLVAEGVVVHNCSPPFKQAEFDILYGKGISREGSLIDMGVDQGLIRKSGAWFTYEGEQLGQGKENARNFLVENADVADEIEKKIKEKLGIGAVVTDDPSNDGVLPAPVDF
Kind of experiment: Fluorescence Cell-Free Homogeneous Dose Retest to Identify Inhibitors of RecA-Intein Splicing Activity. [Related pubchem assays (depositor defined):AID2097, AID2223, AID489010, AID492950]. It counts as functional.

Experiment [2] can be described thus: Luminescence Cell-Based Dose Retest to Confirm Inhibitors of Cancer Stem Cells. [Related pubchem assays (depositor defined):AID2717, AID2721]. It counts as functional. The conditions noted are these: Homo sapiens.
The next experiment concerns the target T3, Protein skinhead-1 (Caenorhabditis elegans, UniProt P34707).
T3 sequence (P34707 whole entry): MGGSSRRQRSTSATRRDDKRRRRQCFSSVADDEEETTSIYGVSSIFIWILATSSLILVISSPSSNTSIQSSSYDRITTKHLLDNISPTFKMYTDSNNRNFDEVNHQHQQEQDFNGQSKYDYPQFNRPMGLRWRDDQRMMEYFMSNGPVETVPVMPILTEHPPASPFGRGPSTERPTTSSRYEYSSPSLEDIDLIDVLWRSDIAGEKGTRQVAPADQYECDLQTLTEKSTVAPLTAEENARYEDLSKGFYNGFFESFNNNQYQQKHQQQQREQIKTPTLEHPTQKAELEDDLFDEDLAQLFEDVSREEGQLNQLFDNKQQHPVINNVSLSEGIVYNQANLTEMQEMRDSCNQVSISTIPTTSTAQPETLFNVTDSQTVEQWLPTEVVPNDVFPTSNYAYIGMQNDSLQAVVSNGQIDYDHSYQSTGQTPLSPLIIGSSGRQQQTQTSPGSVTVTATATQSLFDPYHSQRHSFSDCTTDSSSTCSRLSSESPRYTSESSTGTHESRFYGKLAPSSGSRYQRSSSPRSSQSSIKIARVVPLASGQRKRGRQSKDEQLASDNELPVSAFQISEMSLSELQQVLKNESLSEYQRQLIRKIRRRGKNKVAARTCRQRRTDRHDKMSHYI
It counts as functional.

The target in experiment [3] is Luciferin 4-monooxygenase (Photinus pyralis, UniProt P08659). Kind of experiment: inhibition of purified Photinus pyralis luciferase – biochemical, luminescence, dose response (AID 1891).
Luciferin 4-monooxygenase, sequence (P08659 whole entry): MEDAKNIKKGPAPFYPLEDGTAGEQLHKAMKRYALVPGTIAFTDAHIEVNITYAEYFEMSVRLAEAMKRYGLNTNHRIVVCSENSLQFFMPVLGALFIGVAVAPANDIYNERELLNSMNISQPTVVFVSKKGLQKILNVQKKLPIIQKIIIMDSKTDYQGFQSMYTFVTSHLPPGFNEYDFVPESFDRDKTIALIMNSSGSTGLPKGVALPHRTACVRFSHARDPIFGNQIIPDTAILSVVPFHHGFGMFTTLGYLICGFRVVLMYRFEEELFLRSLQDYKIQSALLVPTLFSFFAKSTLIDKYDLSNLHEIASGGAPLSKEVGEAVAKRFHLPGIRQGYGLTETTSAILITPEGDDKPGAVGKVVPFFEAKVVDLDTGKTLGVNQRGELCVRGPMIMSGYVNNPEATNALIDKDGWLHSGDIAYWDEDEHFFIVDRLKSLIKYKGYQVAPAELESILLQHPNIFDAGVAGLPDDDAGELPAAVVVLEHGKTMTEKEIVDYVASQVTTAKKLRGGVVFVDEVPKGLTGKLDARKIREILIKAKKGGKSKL
The nature of experiment [4]: Luminescence Cell-Based Dose Confirmation HTS to Identify Inhibitors of Platelet Dense Granule Release. [Related pubchem assays: 1663 (Primary HTS), 1678 (Summary of Project)]. It counts as functional.
The nature of experiment [5]: NIH3T3 cell viability loss – ATP luminescence, mouse fibroblasts, counter-screen, dose response (AID 2010).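 Also: cells exposed to compound for about 90 hours before reading.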 It counts as functional, cell-based. For orientation: A counterscreen serves to expose hits that act by an unwanted route or on another target.
Experiment [6] can be described thus: Trypanosoma cruzi growth suppression in host cells – NIH3T3 host cells, beta-gal luminescence, confirmation (AID 2044).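 Also: intracellular parasites grown in NIH/3T3 mouse fibroblasts as host cells; luminescent beta-galactosidase reporter signal from transgenic T. cruzi replicating inside host cells; inhibitors lower the luminescence signal.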 It counts as functional, cell-based.
The target of experiment [7] is T4, Rac GTPase-activating protein 1 (Homo sapiens, UniProt Q9H0H5).
T4 sequence (Q9H0H5 whole entry): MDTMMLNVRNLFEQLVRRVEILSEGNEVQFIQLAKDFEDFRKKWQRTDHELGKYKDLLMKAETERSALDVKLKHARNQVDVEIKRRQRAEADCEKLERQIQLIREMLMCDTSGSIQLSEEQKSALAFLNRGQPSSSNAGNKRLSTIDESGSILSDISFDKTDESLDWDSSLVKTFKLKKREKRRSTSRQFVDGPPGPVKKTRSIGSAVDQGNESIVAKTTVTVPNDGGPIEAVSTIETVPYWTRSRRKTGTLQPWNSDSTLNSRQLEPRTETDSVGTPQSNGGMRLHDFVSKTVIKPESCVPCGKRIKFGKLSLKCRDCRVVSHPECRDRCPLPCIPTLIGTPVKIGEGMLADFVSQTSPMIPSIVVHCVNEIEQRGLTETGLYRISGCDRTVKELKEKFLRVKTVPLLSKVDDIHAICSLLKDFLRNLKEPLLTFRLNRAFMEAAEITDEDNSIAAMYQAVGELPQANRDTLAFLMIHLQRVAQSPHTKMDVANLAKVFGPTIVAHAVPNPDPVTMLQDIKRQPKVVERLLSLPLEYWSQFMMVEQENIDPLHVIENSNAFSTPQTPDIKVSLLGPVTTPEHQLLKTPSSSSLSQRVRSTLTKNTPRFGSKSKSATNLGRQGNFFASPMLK
Kind of experiment: blockers of MgcRacGAP-driven Rac1 GTP hydrolysis – biochemical, ADP Hunter fluorescence, primary and confirmatory, confirmation (AID 624330). It counts as functional.

Structures are written as SMILES. The source made the active and inactive calls. Rule as the data show it, for most assays here: actives have a measured EC50 and inactives only a lower limit.

The source of these data is ChEMBL document CHEMBL1201862, “PubChem BioAssay data set” (2004).

Usually AC50 stands for the concentration at which the activity in the assay is half-maximal. What is called EC50 is the concentration at which the effect is half-maximal. For orientation: IC50 means the midpoint of a concentration-inhibition curve.

In the case of `N#CC(C#N)=C(C#N)c1ccc(Nc2ccccc2)cc1`, the AC50 in experiment [1] was > 380 µM (inactive); in [2] it was 2.54 µM (active). Moreover, the EC50 at Protein RecA is 2.49 µM (active).

Take `CCc1ccc(NC(=O)CSc2ccc(-c3sc(C)nc3C)nn2)cc1`: the AC50 in experiment [1] is 278 µM (active). Also, the EC50 on Protein RecA was > 380 µM (inactive).

As for `O=C(NC1CCCC1)C(c1ccc(F)cc1)N(Cc1ccc(Cl)cc1)C(=O)CCl` (stereo not drawn), the AC50 in experiment [1] is 9.46 µM (active). For the same molecule, the 50% effective concentration (EC50) at Protein RecA is 0.965 µM (active). In the same order, the values of `CCCc1n[nH]c2c1C(c1ccc(OC(=O)c3ccco3)cc1)C(C#N)=C(N)O2` (stereo not drawn) are 3.41 µM (active) and 5.22 µM (active). In the case of `Brc1ccc(-c2nc(-c3ccccc3)no2)o1`, the 50% inhibitory concentration (IC50) at Protein skinhead-1 was 14.1 µM (active). `Cc1ccc(Cl)c(OCC(=O)Nc2ccccc2C(=O)NC2CC2)c1`: the EC50 in experiment [3] and in experiment [4] was > 112 µM (not active) in each case. As to `CCOc1cc(/C=C2\C(=N)N3N=C(N4CCCCC4)SC3=NC2=O)ccc1OC(=O)c1ccco1`, the AC50 in [1] was > 380 µM (inactive). Also, the 50% effective concentration (EC50) at Protein RecA was 18.6 µM (active).

Turning to `CN1CCN2c3ccc(N)cc3CC3(C(=O)NC(=O)NC3=O)C2C1` (stereo not drawn), in experiment [1], the AC50 was 147 µM (active). Besides, on Protein RecA, the EC50 was 39.5 µM (active).

Consider `CCCCCN(C(=O)CCC(=O)OCC(=O)N1C(C)CCCC1C)c1c(N)n(CCCC)c(=O)[nH]c1=O` (stereo not drawn), for which the half-maximal effective concentration (EC50) in experiment [3] and in experiment [4] was > 112 µM (not active) each time. `CCOC(=O)CSc1nc2sc3c(c2c(=O)n1C1CCCCC1)CCN(C)C3`: the AC50 in experiment [1] is > 380 µM (inactive). The EC50 in experiment [5] is > 30 µM (not active); on Protein RecA, 15.2 µM (active); in experiment [6], 1.43 µM (active). As to `CCOC(=O)/C(C#N)=C\c1ccc(O)c(OC)c1`, in [7], the IC50 was 48.9 µM (active). Besides, the AC50 in experiment [1] was 27.2 µM (active). In addition, at Protein RecA, the EC50 is 9.54 µM (active). Consider `c1ccc(OCc2cc(-c3ccccc3)no2)cc1`, for which, on Protein skinhead-1, the IC50 was 68.7 µM (inactive). In the case of `Cc1ccc2c(c1)c1nnc(SCC(=O)Nc3ccc(N(C)C)cc3)nc1n2CC(=O)O`, the concentration at half-maximal activity (AC50) in experiment [1] was 92.5 µM (active). The EC50 at Protein RecA is 0.483 µM (active). On to `COCC(C)NC(=O)CCS(=O)(=O)c1nc(-c2ccc(OC)cc2)cc(C(F)(F)F)n1` (stereo not drawn), for which the AC50 in experiment [1] was 12.5 µM (active). The half-maximal effective concentration (EC50) at Protein RecA was 6.72 µM (active).

Take `Cn1cnc([N+](=O)[O-])c1Oc1ccc2ccccc2c1`: the AC50 in experiment [1] was 31.9 µM (active). In addition, the EC50 on Protein RecA was 12.7 µM (active).

For `COc1ccc(-c2[nH]nc3c2C(c2ccccc2OC(=O)N2CCOCC2)C(C#N)=C(N)O3)cc1` (stereo not drawn), the AC50 in [1] was 11.2 µM (active). For the same molecule, at Protein RecA, the EC50 is 3.91 µM (active). Consider `CC(=O)c1cnc2c(-c3ccc(Cl)cc3)c(C)nn2c1C`, for which the EC50 is > 112 µM (not active) in experiment [3] and 78.7 µM (active) in experiment [4]. With `Cc1onc(-c2c(F)cccc2Cl)c1C(=O)Nc1nc2ccccc2[nH]1`, at Protein skinhead-1, the IC50 was > 100 µM (inactive).

For `O=C(/C=C/c1ccc([N+](=O)[O-])cc1)NCc1cccs1`, the values for the EC50 in [3] and in [4] were > 112 µM (not active) and 57.2 µM (active), respectively. On the same counts, the results for `Cn1nc(C(=O)Nc2nc3ccc(S(C)(=O)=O)cc3s2)ccc1=O` are 3.18 µM (active) and 7.45 µM (active).

For the molecule `COc1cc2c(cc1OC)[C@@H](NC(=O)CCc1ccccc1)[C@H](OCc1ccccc1)C2`, on Protein skinhead-1, the IC50 was > 100 µM (inactive). The same measure, in the same setting: the value for `C(/C=C/c1ccccn1)=C\c1ccccc1` was 50.8 µM (inactive); that for `COc1cccc(-n2cnnn2)c1` was > 100 µM (inactive). The same measure, in the same setting: the value for `CN(C)C(CNC(=O)c1cccc(S(=O)(=O)N2CCN(c3ccc(F)cc3)CC2)c1)c1ccccc1` (stereo not drawn) was 63.4 µM (inactive).

With `Cc1ccc(-c2nc3ccc(Br)cn3c2Cc2ccccc2C(F)(F)F)cc1`, the IC50 at Protein skinhead-1 is 75.5 µM (inactive). For the molecule `COC(=O)C1C2CC3c4[nH]c5cc(OC)ccc5c4CCN3CC2CC(OC(=O)CC(C)=O)C1OC` (stereo not drawn), the IC50 on Protein skinhead-1 is > 100 µM (inactive). Still for that read-out and setting: the same measure for `O=C(Nc1ccccc1Cl)c1cc(C2CCCN(C(=O)OCCF)C2)on1` (stereo not drawn): > 100 µM (inactive); for `O=C1NC[C@H](Cc2ccccc2)N(C[C@@H]2CCCN2C[C@H](Cc2ccc(O)cc2)N2C[C@H](Cc3ccccc3)N(CC3CCCCCC3)C(=O)C2=O)C1=O`: > 100 µM (inactive). For the molecule `COc1ccc(CC(=O)N/N=C(/C)CC(=O)N(C)c2ccccc2)cc1`, the AC50 in experiment [1] was 29.3 µM (active). Besides, the EC50 on Protein RecA was 9.23 µM (active). As for `Cc1ccc(S(=O)(=O)/N=C(\c2ccc(F)cc2)n2c(C)nc3ccccc32)cc1`, the EC50 in experiment [3] and in experiment [4] was > 112 µM (not active) in each case.
